Source: ChEMBL document CHEMBL1201862, “PubChem BioAssay data set” (2004)
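Cultured in 96-well plates, cells were exposed to test compound for 48 hours across five concentrations. GI50 marks 50% less growth.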 Active and inactive are the calls of the source. No stated cut-off is given here; in the data, active = GI50 up to about 1.1 µM and inactive = higher.

What was measured:
Experiment in all cases: NCI-60 cell line screen, 48 h
UACC-257 = test system: UACC-257
SNB-75 = test system: SNB-75
HOP-18 = test system: HOP-18
OVCAR-4 = test system: OVCAR-4
HCT-15 = test system: HCT-15
A549 = test system: A549
RXF 393 = test system: RXF 393
786-0 = test system: 786-0
NCI-H460 = test system: NCI-H460
HT-29 = test system: HT-29
SK-MEL-2 = test system: SK-MEL-2
OVCAR-5 = test system: OVCAR-5
Malme-3M = test system: Malme-3M
SF-268 = test system: SF-268
DLD-1 = test system: DLD-1
CCRF-CEM = test system: CCRF-CEM
MOLT-4 = test system: MOLT-4
CAKI-1 = test system: CAKI-1
UACC-62 = test system: UACC-62
SK-MEL-5 = test system: SK-MEL-5
COLO 205 = test system: COLO 205
EKVX = test system: EKVX
SK-MEL-28 = test system: SK-MEL-28
SNB-19 = test system: SNB-19
NCI-H23 = test system: NCI-H23
TK-10 = test system: TK-10
SF-539 = test system: SF-539
HL-60 = test system: HL-60
K562 = test system: K562
LOX IMVI = test system: LOX IMVI
SW-620 = test system: SW-620
HOP-92 = test system: HOP-92
OVCAR-3 = test system: OVCAR-3
DMS-114 = test system: DMS-114
ACHN = test system: ACHN
HCC 2998 = test system: HCC 2998
IGROV-1 = test system: IGROV-1
KM12 = test system: KM12
LXFL 529 = test system: LXFL 529
A498 = test system: A498
SF-295 = test system: SF-295
NCI-H226 = test system: NCI-H226
HCT-116 = test system: HCT-116
M14 = test system: M14
DMS-273 = test system: DMS-273
M19-MEL = test system: M19-MEL
KM-20L2 = test system: KM-20L2
SN12C = test system: SN12C
RPMI-8226 = test system: RPMI-8226
OVCAR-8 = test system: OVCAR-8
SK-OV-3 = test system: SK-OV-3
SR = test system: SR
XF498 = test system: XF498
U-251 = test system: U-251
UO-31 = test system: UO-31
NCI-H522 = test system: NCI-H522

Measured: GI50

Cc1ccc(S(=O)(=O)N/N=C(\c2nc3ccc(Cl)cc3[nH]c2=O)C(O)c2ccco2)cc1 (stereo not given)
inactive: UACC-257 > 100 µM | SNB-75 > 100 µM | HOP-18 > 100 µM | OVCAR-4 > 100 µM | A549 > 100 µM | RXF 393 > 100 µM | 786-0 > 100 µM | NCI-H460 > 100 µM | HT-29 > 100 µM | SK-MEL-2 > 100 µM | OVCAR-5 > 100 µM | Malme-3M > 100 µM | SF-268 > 100 µM | DLD-1 > 100 µM | CCRF-CEM 7.5 µM | MOLT-4 28.1 µM | CAKI-1 > 100 µM | UACC-62 > 100 µM | SK-MEL-5 > 100 µM | COLO 205 > 100 µM | EKVX > 100 µM | SK-MEL-28 > 100 µM | SNB-19 > 100 µM | NCI-H23 > 100 µM | TK-10 > 100 µM | SF-539 > 100 µM | HL-60 44 µM | K562 42.3 µM | LOX IMVI > 100 µM | SW-620 > 100 µM | HOP-92 > 100 µM | OVCAR-3 > 100 µM | DMS-114 22.3 µM | ACHN > 100 µM | HCC 2998 > 100 µM | IGROV-1 > 100 µM | KM12 66.8 µM | LXFL 529 > 100 µM | A498 > 100 µM | SF-295 > 100 µM | NCI-H226 > 100 µM | HCT-116 > 100 µM | M14 > 100 µM | DMS-273 > 100 µM | M19-MEL > 100 µM | KM-20L2 > 100 µM
> 100 µM: HCT-15

O=C(O)C(CS)Nc1c2ccccc2nc2ccccc12 (stereo not given)
51.3 µM: HCT-15
inactive: UACC-257 58.5 µM | SNB-75 > 100 µM | OVCAR-4 19.7 µM | SN12C 51.1 µM | RPMI-8226 48.2 µM | A549 67.5 µM | RXF 393 > 100 µM | 786-0 > 100 µM | NCI-H460 36.1 µM | HT-29 46.6 µM | SK-MEL-2 83.9 µM | OVCAR-5 53.5 µM | Malme-3M 54.3 µM | OVCAR-8 48.3 µM | SK-OV-3 > 100 µM | SF-268 > 100 µM | DLD-1 78.9 µM | SR 36.3 µM | CCRF-CEM 79.3 µM | MOLT-4 38.3 µM | CAKI-1 44.7 µM | COLO 205 37.7 µM | EKVX 42.7 µM | SK-MEL-28 > 100 µM | SNB-19 61.1 µM | NCI-H23 91.8 µM | TK-10 35.6 µM | SF-539 50 µM | HL-60 80.4 µM | K562 49.7 µM | LOX IMVI 40.6 µM | SW-620 54.1 µM | XF498 24.9 µM | HOP-92 49.7 µM | OVCAR-3 49.9 µM | DMS-114 27.7 µM | ACHN 38.3 µM | U-251 > 100 µM | HCC 2998 82 µM | IGROV-1 > 100 µM | KM12 59.6 µM | LXFL 529 > 100 µM | SF-295 56.9 µM | UO-31 26 µM | NCI-H522 29.1 µM | NCI-H226 > 100 µM | HCT-116 > 10 µM | M14 43.7 µM | DMS-273 34.6 µM | M19-MEL 57 µM | KM-20L2 49.8 µM

Cc1ccc2c(c1CCCC(C)(C)O)C(=O)C(O)=C(C(C)C)C2=O
41.9 µM: HCT-15
inactive: SNB-75 > 100 µM | HOP-18 > 100 µM | OVCAR-4 > 100 µM | SN12C 78.3 µM | RPMI-8226 39.1 µM | A549 50.6 µM | RXF 393 53.5 µM | 786-0 > 100 µM | NCI-H460 47.2 µM | HT-29 > 100 µM | SK-MEL-2 36.7 µM | Malme-3M > 100 µM | OVCAR-8 62.5 µM | SK-OV-3 > 100 µM | SF-268 59.4 µM | DLD-1 > 100 µM | SR 41.2 µM | CCRF-CEM 32.2 µM | MOLT-4 60.1 µM | CAKI-1 > 100 µM | SK-MEL-5 > 100 µM | COLO 205 > 100 µM | EKVX 47.2 µM | SK-MEL-28 > 100 µM | SNB-19 > 100 µM | NCI-H23 59.3 µM | TK-10 > 100 µM | SF-539 > 100 µM | HL-60 46.6 µM | K562 48.1 µM | SW-620 > 100 µM | HOP-92 > 100 µM | OVCAR-3 66.7 µM | DMS-114 39.1 µM | ACHN 63 µM | U-251 53.1 µM | HCC 2998 > 100 µM | IGROV-1 90.4 µM | KM12 > 100 µM | LXFL 529 62.1 µM | A498 > 100 µM | SF-295 81.7 µM | UO-31 76 µM | NCI-H522 > 100 µM | NCI-H226 > 100 µM | HCT-116 60.5 µM | M14 > 100 µM | DMS-273 95.5 µM | M19-MEL 96.6 µM | KM-20L2 > 100 µM
